Reference: ChEMBL document CHEMBL1124519 (J Med Chem, 1989)

Columns and labels:
L1210 = assay: The cytotoxicity (LC99) was evaluated in vitro against L1210 cells obtained from cultured mice.; type: functional, Mus musculus
Homo sapiens = species: Homo sapiens; assay: Half-life period obtained from linear regression of metabolite concentration in Human plasma containing 100 mM phosphate, at pH 7.4; type: ADME
[1] = Half-life period obtained from linear regression of metabolite concentration in aqueous buffer of pH 7.4 at 37 degrees Celsius in 100 mM phosphate buffer.; type: ADME
[2] = Half-life period obtained from linear regression of metabolite concentration in aqueous buffer of pH 7.4 at 37 degrees Celsius in 200 mM phosphate buffer.; type: ADME

Row | SMILES | LC99 (L1210) [µM] | T1/2 (Homo sapiens) [min] | T1/2 [1] [min] | T1/2 [2] [min]
1 | O=CCCOP(=O)(NCCCl)NCCCl.O=P1(NCCCl)OCCC(O)N1CCCl | 12.6 | 10 | 50 | 
2 | O=P(O)(NCCCl)NCCCl [PALIFOSFAMIDE] | 70 |  |  | 61
